{"source": "patent US6103888A", "about": "“Mammalian cationic proteins having lipopolysaccharide binding and anti-coagulant activity” (priority 1999, dated 2000)", "tested_on": "human mononuclear cells", "assay": "LPS-induced tissue factor by human mononuclear cells (clotting assay)", "format": "cell-based", "protocol": "Human mononuclear cells were separated from citrated peripheral blood by centrifugation over Sodium-metrizoate-Ficoll (lymphocyte Separation Medium, Japan Antibody Institute, Gumma). The resulting mixed mononuclear cell suspension was washed 3 times with RPMI 1640 media. Cell suspension (1×10^6 /ml) was stimulated with LPS for 16 to 18 hr.\nVeronal buffered saline (VBS) was added to the cell pellet, lysed by 3 cycles of freeze/thaw and sonicated for 10 sec with a hand-held sonicator microbe (Handy Sonic, model UR-20P, Tomy Seiko LTD, Tokyo). Tissue factor activity was tested in modified unactivated partial thromboplastin time (7). One tenth ml of cell lysate (1×10^6 /ml) was preincubated with mouse plasma at 37° C. for 3 min. Then 0.1 ml of 25 mM-CaCl2 which contains phospholipid was added to the mixture and clotting time was measured using a fibrometer (Bio Quest Division, Becton Dickinson, Cokeysville, USA). A standard curve obtained from serial two-fold dilutions of rabbit brain thromboplastic (Simplastin, Ono Pharmaceutical Co.) was used to transpose tissue factor activity into arbitrary tissue factor units (1 μg/ml) suspension of rabbit brain was assigned a value of 1,000 units).\nThe mean tissue factor units+standard error was determined from three to four samples. Student's t test for unpair data was used to determine the statistically significant differences. A two-tailed P value of <0.05 was considered significant. […]", "key": {"[1]": {"conditions": "LPS 0.1 μg/ml, peptide HA units: RNIP 2, CAP-18 1, HP-1 4, HP-2 2"}}, "note": "Where “and” joins values, the source holds several entries; their conditions need not be identical. Equal entries are not always repeated."}
{"substance": "RNIP: rabbit reactive nitrogen inhibitory protein, amino acids 135-171 of SEQ ID NO:4; purified from granulocytes (Tables 1-3) or synthetic (#197) (GLRKRLRKFRNKIKEKLKKIGQKIQGLLPKLAPRTDY)", "values": [{"measurement": "Inhibition (%)", "setting": "[1]", "result": "51% and 41%"}, {"measurement": "Tissue Factor Units, value in parentheses (ratio to unstimulated control)", "setting": "[1]", "result": 9.0}, {"measurement": "Δ Units (%)", "setting": "LPS 0.1 μg/ml, relative to LPS alone (100), 960 min", "result": "49% and 59%"}, {"measurement": "Tissue Factor Units, value in parentheses (ratio to unstimulated control)", "setting": "no LPS, peptide alone", "result": 1.3}, {"measurement": "Tissue factor units", "setting": "no LPS, peptide alone", "result": "636 ± 141 Units ×10^3 /3.6 × 10^4 cells"}, {"measurement": "Δ Units", "setting": "no LPS, peptide alone", "result": 144, "unit": "Units"}]}
